Data on seven cell lines can be found in the supplement of paper PMC10307832.

Holding throughout (experiment): relative viability (nuclei count vs DMSO), 5 days (fraction); higher = more cells survive
Compound in the test “Doxorubicin + Vorinostat”: COc1cccc2c1C(=O)c1c(O)c3c(c(O)c1C2=O)C[C@@](O)(C(=O)CO)C[C@@H]3O[C@H]1C[C@H](N)[C@H](O)[C@H](C)O1 [Doxorubicin] + O=C(CCCCCCC(=O)Nc1ccccc1)NO [Vorinostat] (partner 1 µM)
In a few lines:
(§1)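 Relative viability divides the nuclei count in treated wells by that in vehicle wells. Lung cancer cell lines were seeded in 1536-well plates, dosed by pin tool the next day, and fixed and stained after 5 days in one step with final 0.05% Triton X-100, 1% formaldehyde and 1 ug/ml Hoechst. Dosing was a single drug or a fixed anchor-drug dose plus five library-drug doses (not always all listed) in √10 steps, and values are medians of duplicate plates imaged at 4×.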

Compound in the test “BAY61-3606 + Alpelisib”: COC1=C(C=C(C=C1)C2=CC3=NC=CN3C(=N2)NC4=C(C=CC=N4)C(=O)N)OC [BAY61-3606] + Cc1nc(NC(=O)N2CCC[C@H]2C(N)=O)sc1-c1ccnc(C(C)(C)C(F)(F)F)c1 [Alpelisib] (partner 2 µM)
In a few lines: as §1

Compound in the test “BAY61-3606 + Phenformin”: COC1=C(C=C(C=C1)C2=CC3=NC=CN3C(=N2)NC4=C(C=CC=N4)C(=O)N)OC [BAY61-3606] + N=C(N)NC(=N)NCCc1ccccc1 [Phenformin] (partner 250 µM)
In a few lines: as §1

Compound in the test “BAY61-3606 + Trametinib”: COC1=C(C=C(C=C1)C2=CC3=NC=CN3C(=N2)NC4=C(C=CC=N4)C(=O)N)OC [BAY61-3606] + CC(=O)Nc1cccc(-n2c(=O)n(C3CC3)c(=O)c3c(Nc4ccc(I)cc4F)n(C)c(=O)c(C)c32)c1 [Trametinib] (partner 0.02 µM)
In a few lines:
as §1

On to NCI-H2085, for which the relative viability with Doxorubicin + Vorinostat (first compound 0.001 µM) was 0.725; with Doxorubicin + Vorinostat (first compound 0.003162 µM), 0.779; with Doxorubicin + Vorinostat (first compound 0.01 µM) it was 0.807; with Doxorubicin + Vorinostat (first compound 0.03162 µM), 0.82; with Doxorubicin + Vorinostat (first compound 0.1 µM), 0.618; with BAY61-3606 + Alpelisib (first compound 0.02 µM), 0.994. Also, the relative viability worked out at 0.977 with BAY61-3606 + Alpelisib (first compound 0.06325 µM); 1.04 with BAY61-3606 + Alpelisib (first compound 0.2 µM); 0.949 with BAY61-3606 + Alpelisib (first compound 0.6325 µM); 0.871 with BAY61-3606 + Alpelisib (first compound 2 µM); 0.793 with BAY61-3606 + Phenformin (first compound 0.02 µM); 0.755 with BAY61-3606 + Phenformin (first compound 0.06325 µM). For the same cell line, the relative viability with BAY61-3606 + Phenformin (first compound 0.2 µM) turned out to be 0.717; in the test with BAY61-3606 + Phenformin (first compound 0.6325 µM) it was 0.757; with BAY61-3606 + Phenformin (first compound 2 µM) it was 0.64; with BAY61-3606 + Trametinib (first compound 0.02 µM), 0.666; with BAY61-3606 + Trametinib (first compound 0.06325 µM), 0.45; in the test with BAY61-3606 + Trametinib (first compound 0.2 µM), 0.511. Besides, the relative viability is 0.59 with BAY61-3606 + Trametinib (first compound 0.6325 µM) and 0.42 with BAY61-3606 + Trametinib (first compound 2 µM).
Take NCI-H2087: the relative viability in the test with Doxorubicin + Vorinostat (first compound 0.001 µM) was determined as 0.327; with Doxorubicin + Vorinostat (first compound 0.003162 µM), 1.08; in the test with Doxorubicin + Vorinostat (first compound 0.01 µM), 0.746; in the test with Doxorubicin + Vorinostat (first compound 0.03162 µM), 0.75; with Doxorubicin + Vorinostat (first compound 0.1 µM), 0.677; with BAY61-3606 + Alpelisib (first compound 0.02 µM), 1.15. Also, the relative viability in the test with BAY61-3606 + Alpelisib (first compound 0.06325 µM) was 1.17; with BAY61-3606 + Alpelisib (first compound 0.2 µM), 1.02; with BAY61-3606 + Alpelisib (first compound 0.6325 µM), 1.16; with BAY61-3606 + Alpelisib (first compound 2 µM), 0.949; with BAY61-3606 + Phenformin (first compound 0.02 µM), 0.432; with BAY61-3606 + Phenformin (first compound 0.06325 µM), 0.463. Moreover, the relative viability amounted to 0.44 with BAY61-3606 + Phenformin (first compound 0.2 µM); 0.411 with BAY61-3606 + Phenformin (first compound 0.6325 µM); 0.384 with BAY61-3606 + Phenformin (first compound 2 µM); 0.228 with BAY61-3606 + Trametinib (first compound 0.02 µM); 0.196 in the test with BAY61-3606 + Trametinib (first compound 0.06325 µM); 0.202 in the test with BAY61-3606 + Trametinib (first compound 0.2 µM). Moreover, the relative viability came out at 0.178 with BAY61-3606 + Trametinib (first compound 0.6325 µM) and 0.2 in the test with BAY61-3606 + Trametinib (first compound 2 µM).
For NCI-H2126, the relative viability is 0.725 with Doxorubicin + Vorinostat (first compound 0.001 µM); 0.839 with Doxorubicin + Vorinostat (first compound 0.003162 µM); 0.8 with Doxorubicin + Vorinostat (first compound 0.01 µM); 0.751 with Doxorubicin + Vorinostat (first compound 0.03162 µM); 0.799 with Doxorubicin + Vorinostat (first compound 0.1 µM); 0.784 with BAY61-3606 + Alpelisib (first compound 0.02 µM). In addition, the relative viability with BAY61-3606 + Alpelisib (first compound 0.06325 µM) was determined as 0.769; with BAY61-3606 + Alpelisib (first compound 0.2 µM) it was 0.705; in the test with BAY61-3606 + Alpelisib (first compound 0.6325 µM), 0.739; in the test with BAY61-3606 + Alpelisib (first compound 2 µM), 0.671; with BAY61-3606 + Phenformin (first compound 0.02 µM), 0.547; in the test with BAY61-3606 + Phenformin (first compound 0.06325 µM) it was 0.496. The relative viability came out at 0.524 with BAY61-3606 + Phenformin (first compound 0.2 µM); 0.491 in the test with BAY61-3606 + Phenformin (first compound 0.6325 µM); 0.47 with BAY61-3606 + Phenformin (first compound 2 µM); 0.622 in the test with BAY61-3606 + Trametinib (first compound 0.02 µM); 0.539 with BAY61-3606 + Trametinib (first compound 0.06325 µM); 0.514 with BAY61-3606 + Trametinib (first compound 0.2 µM). For the same cell line, the relative viability is 0.567 with BAY61-3606 + Trametinib (first compound 0.6325 µM) and 0.57 with BAY61-3606 + Trametinib (first compound 2 µM).
With NCI-H2170, the relative viability with Doxorubicin + Vorinostat (first compound 0.001 µM) turned out to be 0.737; in the test with Doxorubicin + Vorinostat (first compound 0.003162 µM), 0.939; with Doxorubicin + Vorinostat (first compound 0.01 µM), 0.872; in the test with Doxorubicin + Vorinostat (first compound 0.03162 µM) it was 0.702; with Doxorubicin + Vorinostat (first compound 0.1 µM) it was 0.881; with BAY61-3606 + Alpelisib (first compound 0.02 µM), 0.775. The relative viability with BAY61-3606 + Alpelisib (first compound 0.06325 µM) worked out at 0.869; in the test with BAY61-3606 + Alpelisib (first compound 0.2 µM) it was 0.801; with BAY61-3606 + Alpelisib (first compound 0.6325 µM) it was 0.857; in the test with BAY61-3606 + Alpelisib (first compound 2 µM), 0.512; in the test with BAY61-3606 + Phenformin (first compound 0.02 µM), 0.399; in the test with BAY61-3606 + Phenformin (first compound 0.06325 µM) it was 0.356. Besides, the relative viability stood at 0.434 with BAY61-3606 + Phenformin (first compound 0.2 µM); 0.401 in the test with BAY61-3606 + Phenformin (first compound 0.6325 µM); 0.385 in the test with BAY61-3606 + Phenformin (first compound 2 µM); 0.859 with BAY61-3606 + Trametinib (first compound 0.02 µM); 0.879 in the test with BAY61-3606 + Trametinib (first compound 0.06325 µM); 0.907 with BAY61-3606 + Trametinib (first compound 0.2 µM). For the same cell line, the relative viability came to 0.916 with BAY61-3606 + Trametinib (first compound 0.6325 µM) and 0.762 in the test with BAY61-3606 + Trametinib (first compound 2 µM).
For NCI-H2228, the relative viability stood at 0.759 in the test with Doxorubicin + Vorinostat (first compound 0.001 µM); 0.43 with Doxorubicin + Vorinostat (first compound 0.003162 µM); 0.46 in the test with Doxorubicin + Vorinostat (first compound 0.01 µM); 0.374 with Doxorubicin + Vorinostat (first compound 0.03162 µM); 0.518 with Doxorubicin + Vorinostat (first compound 0.1 µM); 0.702 with BAY61-3606 + Alpelisib (first compound 0.02 µM). The relative viability in the test with BAY61-3606 + Alpelisib (first compound 0.06325 µM) amounted to 0.654; in the test with BAY61-3606 + Alpelisib (first compound 0.2 µM) it was 0.782; in the test with BAY61-3606 + Alpelisib (first compound 0.6325 µM), 0.736; with BAY61-3606 + Alpelisib (first compound 2 µM) it was 0.561; with BAY61-3606 + Phenformin (first compound 0.02 µM) it was 0.37; with BAY61-3606 + Phenformin (first compound 0.06325 µM) it was 0.294. Further, the relative viability with BAY61-3606 + Phenformin (first compound 0.2 µM) worked out at 0.368; with BAY61-3606 + Phenformin (first compound 0.6325 µM), 0.276; in the test with BAY61-3606 + Phenformin (first compound 2 µM), 0.26; in the test with BAY61-3606 + Trametinib (first compound 0.02 µM) it was 0.523; with BAY61-3606 + Trametinib (first compound 0.06325 µM) it was 0.439; with BAY61-3606 + Trametinib (first compound 0.2 µM), 0.476. Also, the relative viability amounted to 0.531 in the test with BAY61-3606 + Trametinib (first compound 0.6325 µM) and 0.365 with BAY61-3606 + Trametinib (first compound 2 µM).
Consider NCI-H2347, for which the relative viability with Doxorubicin + Vorinostat (first compound 0.001 µM) turned out to be 0.588; with Doxorubicin + Vorinostat (first compound 0.003162 µM) it was 0.539; with Doxorubicin + Vorinostat (first compound 0.01 µM) it was 0.45; with Doxorubicin + Vorinostat (first compound 0.03162 µM) it was 0.49; in the test with Doxorubicin + Vorinostat (first compound 0.1 µM), 0.476; in the test with BAY61-3606 + Alpelisib (first compound 0.02 µM), 1.17. The relative viability in the test with BAY61-3606 + Alpelisib (first compound 0.06325 µM) was found to be 0.9; with BAY61-3606 + Alpelisib (first compound 0.2 µM), 1.13; in the test with BAY61-3606 + Alpelisib (first compound 0.6325 µM), 1.16; with BAY61-3606 + Alpelisib (first compound 2 µM) it was 0.986; with BAY61-3606 + Phenformin (first compound 0.02 µM), 0.563; with BAY61-3606 + Phenformin (first compound 0.06325 µM) it was 0.359. Moreover, the relative viability in the test with BAY61-3606 + Phenformin (first compound 0.2 µM) was 0.544; with BAY61-3606 + Phenformin (first compound 0.6325 µM), 0.455; with BAY61-3606 + Phenformin (first compound 2 µM), 0.538; with BAY61-3606 + Trametinib (first compound 0.02 µM) it was 0.287; with BAY61-3606 + Trametinib (first compound 0.06325 µM), 0.332; with BAY61-3606 + Trametinib (first compound 0.2 µM), 0.285. Further, the relative viability came to 0.296 with BAY61-3606 + Trametinib (first compound 0.6325 µM) and 0.244 with BAY61-3606 + Trametinib (first compound 2 µM).
In the case of NCI-H2405, the relative viability was 1.2 with Doxorubicin + Vorinostat (first compound 0.001 µM); 1.17 in the test with Doxorubicin + Vorinostat (first compound 0.003162 µM); 0.971 with Doxorubicin + Vorinostat (first compound 0.01 µM); 0.804 in the test with Doxorubicin + Vorinostat (first compound 0.03162 µM); 0.323 with Doxorubicin + Vorinostat (first compound 0.1 µM); 1.03 with BAY61-3606 + Alpelisib (first compound 0.02 µM). The relative viability is 0.619 with BAY61-3606 + Alpelisib (first compound 0.06325 µM); 0.682 with BAY61-3606 + Alpelisib (first compound 0.2 µM); 0.881 in the test with BAY61-3606 + Alpelisib (first compound 0.6325 µM); 0.574 with BAY61-3606 + Alpelisib (first compound 2 µM); 0.429 with BAY61-3606 + Phenformin (first compound 0.02 µM); 0.259 with BAY61-3606 + Phenformin (first compound 0.06325 µM). Moreover, the relative viability came out at 0.383 in the test with BAY61-3606 + Phenformin (first compound 0.2 µM); 0.38 with BAY61-3606 + Phenformin (first compound 0.6325 µM); 0.41 in the test with BAY61-3606 + Phenformin (first compound 2 µM); 0.637 with BAY61-3606 + Trametinib (first compound 0.02 µM); 0.559 in the test with BAY61-3606 + Trametinib (first compound 0.06325 µM); 0.711 with BAY61-3606 + Trametinib (first compound 0.2 µM). Also, the relative viability with BAY61-3606 + Trametinib (first compound 0.6325 µM) is 0.728; with BAY61-3606 + Trametinib (first compound 2 µM) it was 0.518.
